Measurements from publication PMC10298530, “Synthesis and Anticancer Activity of A-Ring-Modified Derivatives of Dihydrobetulin” (International Journal of Molecular Sciences, 2023).
Where two headings read alike, the source gives them in different places.

Assays:
HEK293 = assay: MTT cell viability assay, HEK293; assay type: cell-based; settings: Homo sapiens
Text: (§1) Blokhin National Medical Research Center of Oncology (the Ministry of Health of the Russian Federation, Moscow).

MCF-7 = assay: MTT cell viability assay, MCF-7; assay type: cell-based, human; settings: for IC50: Homo sapiens, MCF7; for Selectivity index (SI): ratio of IC50 values healthy (HEK293) / MCF-7
Text: as §1

HCT116 = assay: MTT cell viability assay, HCT116; assay type: cell-based, human; settings: for IC50: Homo sapiens, HCT-116; for Selectivity index (SI): ratio of IC50 values healthy (HEK293) / HCT116
Text: as §1

RD TE32 = assay: MTT cell viability assay, RD TE32; assay type: cell-based, human; settings: for IC50: Homo sapiens; for Selectivity index (SI): ratio of IC50 values healthy (HEK293) / RD TE32
Text: as §1

MS = assay: MTT cell viability assay, MS; assay type: cell-based, human; settings: for IC50: Homo sapiens; for Selectivity index (SI): ratio of IC50 values healthy (HEK293) / MS;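 as to IC50 (mean ± SD): MS is a melanocyte cell line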
Text: as §1

A549 = assay: MTT cell viability assay, A549; assay type: cell-based, human; settings: for IC50: Homo sapiens; for Selectivity index (SI): ratio of IC50 values healthy (HEK293) / A549
Text: as §1

PC-3 = assay: MTT cell viability assay, PC-3; assay type: cell-based, human; settings: for IC50: Homo sapiens; for Selectivity index (SI): ratio of IC50 values healthy (HEK293) / PC-3
Text: as §1

HEpG2 = assay: MTT cell viability assay, HEpG2; assay type: cell-based, human; settings: for IC50: Homo sapiens, HEpG2, MTT, 72 h of treatment, read-out: IC50 Values (Mean ± SD); for Selectivity index (SI): ratio of IC50 values healthy (HEK293) / HEpG2
Text: as §1

HBL-100 = assay: MTT cell viability assay, HBL-100; assay type: cell-based, human; settings: for IC50: Homo sapiens; for Selectivity index (SI): ratio of IC50 values healthy (HEK293) / HBL-100
Method: (§2) The cells were cultured in a humidified CO2 incubator (model 460-CE; Thermo Fisher Scientific, Waltham, MA, USA) at +37 °C and 5% CO2.
(§3) The percentage of the viable cells was calculated according to the following equation: cell viability (%) = 100 × (mean absorbance in the treatment group/mean absorbance in the control group). The results were expressed pictorially using Prism 6.0 (GraphPad Software, Boston, MA, USA).

HBL-100/Dox = assay: MTT cell viability assay, HBL-100/Dox; assay type: cell-based, human; settings: for IC50: Homo sapiens; for Selectivity index (SI): ratio of IC50 values healthy (HEK293) / HBL-100/Dox
Method: as §2, §3

human cancer cell lines = assay: MTT assay, panel of cancer cell lines; settings: for IC50: Homo sapiens; for cytotoxicity in the screening studies: MTT screening, Table S1
Method: In this study, the human embryonic kidney cell line HEK293 was used as the non-cancerous cell line.
To investigate the cytotoxic activity of the compounds under study, the MTT colorimetric assay [45] was performed. […] After 72 h, 20 μL of 5 mg/mL solution of MTT (PanEco, Moscow, Russia), in sterile phosphate-buffered saline (PBS; PanEco, Moscow, Russia), was added to each well and further incubated for 4 h. Then, the medium with the compounds was removed, and the formed formazan crystals were dissolved in 100 μL of DMSO. […] The IC50 values were determined from dose-dependent curves, using Prism 6.0 (GraphPad Software, Boston, MA, USA).

[1] = HEK293, MTT, 72 h of treatment, read-out: IC50 Values (Mean ± SD)
[2] = Table S1, HEK293, read-out: IC50 (mean ± SD)
[3] = MCF-7, MTT, 72 h of treatment, read-out: IC50 Values (Mean ± SD)
[4] = HCT116, MTT, 72 h of treatment, read-out: IC50 Values (Mean ± SD)
[5] = RD TE32, MTT, 72 h of treatment, read-out: IC50 Values (Mean ± SD)
[6] = Table S1, RD TE32, read-out: IC50 (mean ± SD)
[7] = MS, MTT, 72 h of treatment, read-out: IC50 Values (Mean ± SD)
[8] = A549, MTT, 72 h of treatment, read-out: IC50 Values (Mean ± SD)
[9] = Table S1, A549, read-out: IC50 (mean ± SD)
[10] = PC-3, MTT, 72 h of treatment, read-out: IC50 Values (Mean ± SD)
[11] = Table S1, PC-3, read-out: IC50 (mean ± SD)
[12] = HBL-100, MTT, 72 h of treatment, read-out: IC50 Values (Mean ± SD)
[13] = Table S1, HBL-100, read-out: IC50 (mean ± SD)
[14] = HBL-100, 72 h, read-out: IC50 Values (Mean ± SD)
[15] = HBL-100, read-out: IC50 (mean ± SD)

Compound	IC50 (HEK293; [1])	IC50 (HEK293; [2])	IC50 (MCF-7; [3])	Selectivity index (SI) (MCF-7)	IC50 (HCT116; [4])	Selectivity index (SI) (HCT116)	IC50 (RD TE32; [5])	IC50 (RD TE32; [6])	Selectivity index (SI) (RD TE32)	IC50 (MS; [7])	Selectivity index (SI) (MS)	IC50 (A549; [8])	IC50 (A549; [9])	Selectivity index (SI) (A549)	IC50 (PC-3; [10])	IC50 (PC-3; [11])	Selectivity index (SI) (PC-3)	IC50 (HEpG2)	Selectivity index (SI) (HEpG2)	IC50 (HBL-100; [12])	further results
COC(=O)[C@]12CCC(C(C)C)C1C1CCC3[C@@]4(C)C[C@@H](C#N)C[C@H](O)C4CC[C@@]3(C)[C@]1(C)CC2 (stereo partly drawn) [compound 19, 2-Cyano-4β-hydroxy-3,4-seco-3,23-dinor-2,24-cyclolup-28-oic acid methyl ester]	34.6 ± 1.1 µM	34.6 ± 1.09 µM	47.9 ± 0.3 µM	0.72	28.2 ± 2.1 µM	1.23	25.2 ± 0.1 µM	25.17 ± 0.11 µM	1.37	22.2 ± 2 µM	1.56	25.9 ± 1.8 µM	25.9 ± 1.75 µM	1.34	17.2 ± 0.7 µM	17.2 ± 0.69 µM	2.01	31.8 ± 2.7 µM	1.09	16 ± 0.9 µM	IC50 (HCT116; Table S1, HCT116, read-out: IC50 (mean ± SD)): 28.2 ± 2.06 µM; IC50 (HBL-100; [13]): 16 ± 0.94 µM; Selectivity index (SI) (HBL-100): 2.16; IC50 (HBL-100/Dox; [14]): 21.1 ± 2.2 µM; IC50 (HBL-100/Dox; [15]): 21.1 ± 2.23 µM; Selectivity index (SI) (HBL-100/Dox): 1.64; melting point: 189.7 °C; IC50 (human cancer cell lines; read-out: moderate activity (range)): 16 to 77.8 µM; cytotoxicity in the screening studies (human cancer cell lines): relatively weak or moderate cytotoxicity
COC(=O)[C@]12CCC(C(C)C)C1C1CCC3[C@@](C)(CCC#N)C(C(=O)CBr)CC[C@@]3(C)[C@]1(C)CC2 (some centres unmarked) [compound 30, 24-Bromo-2-cyano-4-oxo-3,4-seco-3,23-dinorlupan-28-oic acid methyl ester]	24.2 ± 0.5 µM	24.2 ± 0.45 µM	12 ± 0.1 µM	2.02	13.5 ± 0.3 µM	1.79	7.1 ± 0.9 µM	7.05 ± 0.91 µM	3.41	45.9 ± 2.2 µM	0.53	27.7 ± 0.3 µM	27.7 ± 0.31 µM	0.87	34 ± 1.3 µM	34.1 ± 1.28 µM	0.71	49.6 ± 0.5 µM	0.49	3.6 ± 0.3 µM	IC50 (MCF-7; Table S1, MCF-7, read-out: IC50 (mean ± SD)): 12.04 ± 0.06 µM; IC50 (MS; Table S1, MS, read-out: IC50 (mean ± SD)): 46 ± 2.2 µM; IC50 (HBL-100; [13]): 3.62 ± 0.33 µM; Selectivity index (SI) (HBL-100): 6.72; IC50 (HBL-100/Dox; [14]): 4.5 ± 0.2 µM; IC50 (HBL-100/Dox; [15]): 4.53 ± 0.21 µM; Selectivity index (SI) (HBL-100/Dox): 5.37; melting point: 124.4 °C; IC50 (human cancer cell lines; read-out: cytotoxic values (range)): 3.6 to 13.5 µM; cytotoxicity in the screening studies (human cancer cell lines): relatively weak or moderate cytotoxicity
